The subject of assay [1] is DNA topoisomerase 1 (Bos taurus). Kind of assay: Ratio of DNA relaxation times by topoisomerase in presence of 9 uM of compound (t1/e(+drug) / t 1/e(-drug)).
Assay [2] has the same test system. Kind of assay: Ratio of DNA relaxation times by topoisomerase in presence of 2 uM of compound (t1/e(+drug) / t 1/e(-drug)).
Assay [3] shares this test system. The assay is described as follows: Ratio of DNA relaxation times by topoisomerase in presence of 20 uM of compound (t1/e(+drug) / t 1/e(-drug)); Initial complete inhibition.
Assay [4] shares this test system. The assay is described as follows: Ratio of DNA relaxation times by topoisomerase in presence of 20 uM of compound (t1/e(+drug) / t 1/e(-drug)); Complete inhibition.
The subject of assay [5] is DNA. Kind of assay: Binding constant was measured for DNA binding at 20 uM concentration.
Assay [6] concerns DNA topoisomerase 1 (Bos taurus). The assay is described as follows: Ratio of DNA relaxation times by topoisomerase in presence of 18 uM of compound (t1/e(+drug) / t 1/e(-drug)).
Assay [7] has the same test system. Kind of assay: Ratio of DNA relaxation times by topoisomerase in presence of 17 uM of compound (t1/e(+drug) / t 1/e(-drug)); Initial complete inhibition.
Assay [8] has as its system DNA. Kind of assay: Binding constant was measured for DNA binding at 17 uM concentration.

The results in this text go back to ChEMBL document CHEMBL1127472, “Inhibition of topoisomerase I by anthracycline antibiotics: evidence for general inhibition of topoisomerase I by DNA-binding agents” (J Med Chem, 1994).

The structures appear in SMILES notation.

For `COc1cccc2c1C(=O)c1c(O)c3c(c(O)c1C2=O)C[C@@](O)(C(C)=O)C[C@@H]3OC1CC(O)C(CC2CC(O)C(CC3CCC(=O)C(C)O3)CO2)C(C)O1` (stereo not given in full), the Ratio in assay [1] came to 1.4; in assay [2], 0.92.
As to `COc1cccc2c1C(=O)c1c(O)c3c(c(O)c1C2=O)C[C@@](O)(C(C)=O)C[C@@H]3OC1OC(C)C(CC2CC(O)C(CC3CCC(=O)C(C)O3)CO2)C(O)C1I` (stereo not given in full), the Ratio is 1.4 in assay [2] and “Initial complete inhibition” in assay [3].
Turning to `COc1cccc2c1C(=O)c1c(O)c3c(c(O)c1C2=O)C[C@@](O)(C(C)=O)C[C@@H]3OC1OC(c2ccccc2)C(O)C(O)C1I` (stereo not given in full), the Ratio entry is “Complete inhibition” in assay [4] and 3.5 in assay [2]. Further, the Ka1 with DNA [5] came to 400.
For the compound `COc1cccc2c1C(=O)c1c(O)c3c(c(O)c1C2=O)C[C@@](O)(C(C)=O)C[C@@H]3OC1OC(C)C(O)C(O)C1I` (stereo in doubt; 2), the Ratio entry is “Complete inhibition” in assay [4] and 2 in assay [2]. Further, in the assay on DNA [5], the Ka1 was found to be 120.
As to `COc1cccc2c1C(=O)c1c(O)c3c(c(O)c1C2=O)C[C@@](O)(C(C)=O)C[C@@H]3OC1OC(C)C(O)C(O)C1I` (stereo in doubt; form 1), the Ratio in assay [2] came out at 0.76; in assay [6] it was 1.
`COc1cccc2c1C(=O)c1c(O)c3c(c(O)c1C2=O)C[C@@](O)(C(C)=O)C[C@@H]3OC1OC(C)C(O)C(O)C1I` (stereo in doubt; form 2): the values for the Ratio in assay [2] and in assay [7] were 1.5 and “Complete inhibition”, respectively. Besides, the Ka1 in the assay with DNA [8] is 5.
